Measurements as given in ChEMBL document CHEMBL1165915, “Dual Src and Abl inhibitors target wild type Abl and the AblT315I Imatinib-resistant mutant with different mechanisms” (Bioorg Med Chem, 2010).

Key:
Homo sapiens [1] = species: Homo sapiens; experiment: Selectivity ratio of Ki for human recombinant ABL T315I mutant to Ki for human recombinant ABL using ATP as substrate
Homo sapiens [2] = species: Homo sapiens; experiment: Selectivity ratio of Ki for human recombinant ABL T315I mutant to Ki for human recombinant ABL using abtide peptide as substrate

Row | Ratio Ki (Homo sapiens [1]) | Ratio Ki (Homo sapiens [2]) | Structure (SMILES)
1 | 20 | 20 | Cc1ccc(NC(=O)c2ccc(CN3CCN(C)CC3)cc2)cc1Nc1nccc(-c2cccnc2)n1
2 | 40 | 40 | NC(=O)c1cccc(-c2cc(Nc3ccc(OC(F)(F)F)cc3)ncn2)c1
